Assay results taken from PubChem BioAssay (NCI).
Where “and” joins values, the source holds several entries; their conditions need not be identical. Identical values can stand only once.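 Cultured in 96-well plates, cells were exposed to test compound for 48 hours across five concentrations. The concentration for 50% growth inhibition is given as GI50. Definition used: TGI = concentration required for complete inhibition of growth.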

Tested on: MDA-MB-468 breast
Assay: growth of human tumour cells (NCI), 48 h

Question: `COc1ccc(C(=NN=C(N)N)c2ccc(OC)cc2)cc1` was tested. Which GI50 did it give?
Answer: Its GI50 is 1710 nM.

Question: What about the TGI of the same compound?
Answer: Its TGI is 4710 nM.

Question: How did the GI50 turn out when `O=Nc1c(-c2c(O)[nH]c3cc(Br)ccc23)[nH]c2ccccc12` was run?
Answer: The GI50 was 2000 nM.

Question: What about the TGI of the same compound?
Answer: The TGI was 4930 nM.

Question: Which results are given for `COC(=O)c1cc2oc(/C=C3/SC(=S)N(N)C3=O)cc2n1Cc1ccccc1`?
Answer: GI50: 74400 nM; TGI: > 100000 nM

Question: What does the source list for `CC(C)(C)CC(C)(C)c1ccc(O)c(Cc2ccc(Cl)cc2Cl)c1`?
Answer: GI50: 1660 nM; TGI: 3080 nM

Question: For `CC(C)(c1ccccc1)c1cc(O)c(C(C)(C)c2ccccc2)cc1O`, which GI50 is on record?
Answer: The GI50 was 376 nM.

Question: And the TGI?
Answer: The TGI was 3720 nM.

Question: Which GI50 does the source give for `CC1(C)N=C(N)N=C(N)N1c1ccc(OCCCNC(=O)Nc2cccc(S(=O)(=O)F)c2)c(Cl)c1` here?
Answer: Its GI50 is 15700 nM.

Question: And the TGI?
Answer: Its TGI is > 100000 nM.

Question: With `COc1cc(CNCCN2C(=O)c3ccc4c5c(ccc(c35)C2=O)C(=O)N(CCNCc2cc(OC)c(OC)c(OC)c2)C4=O)cc(OC)c1OC` as the compound, how does the GI50 read?
Answer: The GI50 was 123 nM.

Question: What about the TGI of the same compound?
Answer: Its TGI is 323 nM.

Question: Which GI50 does the source give for `COc1cc(/C=C/c2cc(/C=C/c3ccc(O)c(OC)c3)n(C(=O)Nc3ccccc3Cl)n2)ccc1O` here?
Answer: Its GI50 is 264 nM.

Question: And the TGI?
Answer: The TGI was 748 nM.

Question: Which GI50 does the source give for `Cc1ccc(C=C2C(Cl)=C(Cl)C(Cl)=C2Cl)cc1` here?
Answer: Its GI50 is 189 nM.

Question: What about the TGI of the same compound?
Answer: The TGI was 573 nM.

Question: Which GI50 does the source give for `COc1cccc(-c2cc(=O)c3cc(N4CCOCC4)ccc3[nH]2)c1` here?
Answer: The GI50 was 927 nM.

Question: What about the TGI of the same compound?
Answer: The TGI was > 100000 nM.

Question: What does the source list for `N#Cc1c(NC(=O)c2ccc(F)cc2)sc2c1CCCC2`?
Answer: GI50: > 25000 nM; TGI: > 25000 nM

Question: With `COCCOC1=CC(=O)c2c(O)ccc(O)c2C1=O` as the compound, how does the GI50 read?
Answer: Its GI50 is 1270 nM.

Question: And the TGI?
Answer: The TGI was 2780 nM.

Question: For `CCc1cnn2c(NCc3ccc[n+]([O-])c3)cc(N3CCCC[C@H]3CCO)nc12`, which GI50 is on record?
Answer: The GI50 was < 10 nM and 2.21 nM.

Question: And the TGI?
Answer: Its TGI is < 10 nM and 5.88 nM.

Question: Which GI50 does the source give for `O=C(C=P(c1ccccc1)(c1ccccc1)c1ccccc1)CCl` here?
Answer: Its GI50 is 268 nM.

Question: What about the TGI of the same compound?
Answer: The TGI was 1280 nM.

Question: With `COc1cc(N2C(=O)[C@H](c3ccccc3)C2c2ccc(SC)cc2)cc(OC)c1OC` (some centres not stated) as the compound, how does the GI50 read?
Answer: Its GI50 is 27.1 nM.

Question: What about the TGI of the same compound?
Answer: The TGI was 92.9 nM.

Question: With `CC(C)(C)c1cc(/C=N/NC(=O)c2ccccc2NC(=O)c2cccs2)c(O)c(C(C)(C)C)c1` as the compound, how does the GI50 read?
Answer: Its GI50 is 386 nM.

Question: And the TGI?
Answer: The TGI was 20500 nM.

Question: With `Oc1c(Cl)cc(Cl)cc1/C=N/Nc1nnc(N/N=C/c2cc(Cl)cc(Cl)c2O)c2ccccc12` as the compound, how does the GI50 read?
Answer: The GI50 was 337 nM.

Question: What about the TGI of the same compound?
Answer: The TGI was 1880 nM.

Question: Which GI50 does the source give for `O=C1CC(c2ccccc2)Cc2nc3ccc(Br)cc3cc21` (configuration not stated) here?
Answer: Its GI50 is 2230 nM.

Question: What about the TGI of the same compound?
Answer: Its TGI is 7940 nM.

Question: For `CCCC(=O)NC(c1ccc2c(c1)OC(F)(F)O2)c1cc(C)c2cccnc2c1O` (configuration not stated), which GI50 is on record?
Answer: Its GI50 is 370 nM.

Question: What about the TGI of the same compound?
Answer: Its TGI is 2210 nM.

Question: Which results are given for `COC1=C(C)C(=O)c2c(c(CCCl)c3n2CCC3OC(C)=O)C1=O` (configuration not stated)?
Answer: GI50: 5010 nM; TGI: 22500 nM

Question: For `Cn1cc(-c2nc(-c3c[nH]c4ncccc34)cs2)c2ccccc21`, which GI50 is on record?
Answer: Its GI50 is 314 nM.

Question: What about the TGI of the same compound?
Answer: Its TGI is 820 nM.

Question: For `CN1CCN(c2ccc(Nc3nc(NCCCNS(=O)(=O)c4ccccc4)c4sccc4n3)cc2)CC1`, which GI50 is on record?
Answer: Its GI50 is 11800 nM.

Question: What about the TGI of the same compound?
Answer: The TGI was 26400 nM.

Question: For `COc1cc(/C=C2\CCC/C(=C\c3ccc(O)c(OC)c3)C2=O)ccc1O`, which GI50 is on record?
Answer: The GI50 was 1460 nM.

Question: What about the TGI of the same compound?
Answer: The TGI was 3480 nM.

Question: For `Cn1c(=O)nc2n(-c3ccc(Cl)cc3)c3cc(Cl)ccc3nc-2c1=O`, which GI50 is on record?
Answer: The GI50 was 1590 nM.

Question: And the TGI?
Answer: Its TGI is 3070 nM.

Question: What does the source list for `CC(=O)CC/C=C(\C)[C@H](O)[C@H](C)C(=O)O[C@H]1C[C@H](C)C=C2C=C[C@@]3(C)O[C@@H](O)CC(=O)[C@]3(C)[C@H]21`?
Answer: GI50: 454 nM; TGI: 2000 nM

Question: With `Cc1ccc2cccc(OC(=O)Nc3cccc(C(F)(F)F)c3)c2n1` as the compound, how does the GI50 read?
Answer: The GI50 was 3650 nM.

Question: What about the TGI of the same compound?
Answer: Its TGI is 12900 nM.

Question: How did the GI50 turn out when `COc1ccc(/C=C2\COc3ccc(O)c(O)c3C2=O)c(OC)c1OC` was run?
Answer: Its GI50 is 2180 nM.

Question: And the TGI?
Answer: The TGI was 6280 nM.

Question: For `C#Cc1cccc(Nc2ncnc3ccc(OCCCCNCCS(C)(=O)=O)cc23)c1`, which GI50 is on record?
Answer: The GI50 was 94 nM.

Question: What about the TGI of the same compound?
Answer: The TGI was 666 nM.

Question: How did the GI50 turn out when `C#CC(=O)Nc1cccc2c1cc(C)n2-c1nc2c(c(NCc3ccccc3)n1)CCCC2` was run?
Answer: The GI50 was 211 nM.

Question: What about the TGI of the same compound?
Answer: Its TGI is 596 nM.

Question: How did the GI50 turn out when `Clc1cc(Cl)c(OCCCCCCN2CCNCC2)c(Cl)c1` was run?
Answer: Its GI50 is 2140 nM.

Question: What about the TGI of the same compound?
Answer: The TGI was 4610 nM.

Question: `CC(C)(C)c1cc(NC(=O)Nc2ccc(-c3cn4c(n3)sc3cc(OCCN5CCOCC5)ccc34)cc2)no1` was tested. Which GI50 did it give?
Answer: Its GI50 is 3640 nM and 2550 nM and > 10000 nM.

Question: And the TGI?
Answer: Its TGI is 12200 nM and 14200 nM and > 10000 nM.

Question: Which results are given for `CC(C)[C@@](O)(c1ccc2cc(OC(F)F)c(OC(F)F)cc2c1)c1cn[nH]n1`?
Answer: GI50: 12900 nM; TGI: 47400 nM

Question: How did the GI50 turn out when `COc1ccc(C2CC(c3ccc(Nc4ccnc5cc(Cl)ccc45)cc3)=NN2C=O)cc1` (configuration not stated) was run?
Answer: Its GI50 is 1000 nM.

Question: And the TGI?
Answer: The TGI was 6840 nM.

Question: With `COC(=O)[C@]12CC[C@@H](C)[C@H](C)[C@@H]1C1=CC[C@@H]3[C@@]4(C)C[C@@H](OC(=O)/C=C/c5ccccc5)[C@H](O)[C@@](C)(CO)[C@@H]4[C@H](O)C[C@@]3(C)[C@]1(C)CC2` as the compound, how does the GI50 read?
Answer: Its GI50 is 2540 nM.

Question: And the TGI?
Answer: The TGI was 8940 nM.

Question: Which GI50 does the source give for `O=c1cnnc(N/N=C/c2ccccc2O)[nH]1` here?
Answer: Its GI50 is 265 nM.

Question: And the TGI?
Answer: Its TGI is 3320 nM.

Question: How did the GI50 turn out when `O=C1c2cccnc2C(=O)c2c1c(C(=O)OCCN1CCCCC1)c1ccccn21` was run?
Answer: The GI50 was 869 nM.

Question: What about the TGI of the same compound?
Answer: Its TGI is 2840 nM.

Question: For `COc1ccc(NC2=C(I)C(=O)c3ncccc3C2=O)cc1`, which GI50 is on record?
Answer: The GI50 was 1350 nM.

Question: And the TGI?
Answer: The TGI was 2940 nM.

Question: With `C=CC(=O)N1C[C@@H]2CCOc3c(Cl)c(-c4c(O)cccc4F)c(F)c4ncnc(c34)N2C[C@H]1C` as the compound, how does the GI50 read?
Answer: Its GI50 is 2330 nM.

Question: What about the TGI of the same compound?
Answer: Its TGI is 10400 nM.

Question: How did the GI50 turn out when `CN(C)CC(=O)Nc1ccc2ncnc(Nc3ccc(Oc4cccc(C(F)(F)F)c4)c(Cl)c3)c2c1` was run?
Answer: Its GI50 is 1280 nM.

Question: And the TGI?
Answer: Its TGI is 3230 nM.

Question: Which results are given for `COc1ccc(CCN(CC(=O)N(CC(N)=O)C2CCC[C@@H]2OCc2ccccc2)C(=O)CN(C(=O)CN(CCc2ccc(Cl)cc2)C(=O)CN(C(=O)CN(C)Cc2ccccc2F)[C@H](C)C2CCCCC2)[C@H](C)C2CCCCC2)cc1OC` (some centres not stated)?
Answer: GI50: 941 nM; TGI: 4200 nM

Question: `Cn1cc(C2=C(c3cn(-c4ccccc4)c4ccccc34)C(=O)NC2=O)c2ccccc21` was tested. Which GI50 did it give?
Answer: Its GI50 is 7580 nM.

Question: What about the TGI of the same compound?
Answer: The TGI was > 25000 nM.

Question: How did the GI50 turn out when `NC(=S)N/N=C1\c2ccccc2-c2c(F)c(F)c(F)c(F)c21` was run?
Answer: Its GI50 is 2490 nM.

Question: And the TGI?
Answer: The TGI was 5140 nM.

Question: `CN(C)CCCSc1ccccc1NC1=C(Cl)C(=O)C(Nc2ccccc2SCCCN(C)C)=C(Cl)C1=O` was tested. Which GI50 did it give?
Answer: Its GI50 is 1520 nM.

Question: And the TGI?
Answer: The TGI was 3220 nM.

Question: How did the GI50 turn out when `O=C(c1ccc(C(F)(F)F)c(Cl)c1)N(Cc1ccc(Cl)cc1)c1ccc(-c2cc(C(F)(F)F)[nH]n2)c(O)c1` was run?
Answer: The GI50 was 928 nM.

Question: And the TGI?
Answer: Its TGI is 3910 nM.

Question: With `CC1(C)N=C(N)N=C(N)N1c1ccc(Cl)cc1` as the compound, how does the GI50 read?
Answer: Its GI50 is 873 nM.

Question: What about the TGI of the same compound?
Answer: Its TGI is > 100000 nM.

Question: `COC(=O)c1ccccc1CC1Cc2cc3c(cc2C1=O)CCC3` (configuration not stated) was tested. Which GI50 did it give?
Answer: The GI50 was 10600 nM.

Question: What about the TGI of the same compound?
Answer: The TGI was 42100 nM.
